This passage reports melting point results from a melting point compilation (Tetko et al.; mined from patent text by program, amines drawn as free bases though some values may be those of a salt).

Take `Nc1ncccc1C(=O)NCC1CCN(C[C@H]2COc3cccc(C(F)(F)F)c3O2)CC1`: the melting point – broadly, the temperature, or range, at which the solid turns liquid – lay in the range of 101 to 103 °C.
As to `COC(=O)N=P(c1ccccc1)(c1ccccc1)c1ccccc1CN(C)C`, the melting point was 95 to 97 °C.
For the compound `CC(c1ccccc1)N1CCC(n2cnc3ccc(Cl)cc3c2=O)CC1` (centres undefined), the melting point was 160 to 162 °C.
As for `CC1(Cl)C(=O)N(c2ccc(Cl)c(Cl)c2)N=C1C#N` (centres undefined), the melting point was 68 to 69 °C.
With `CCCOc1ccc(S(=O)(=O)N2CCN(CCOC(C)=O)CC2)cc1-c1nc2c(CCC)cn(CC)c2c(=O)[nH]1`, the melting point lay in the range of 139 to 140 °C.
The value for `Fc1cc(OCc2ccccc2)cnc1-c1ccccc1` was 105 to 106 °C; that for `N#Cc1snc(Cl)c1Cl` was 84.5 to 85 °C.
The value for `OC1(c2ccc(Cl)cc2)CCN(CCCc2nnc3n2CCCCC3)CC1` was 163 °C.
For the compound `Cn1c2cc(Cl)ccc2c(=O)c2c(Br)cccc21`, the melting point fell in the range of 223 to 225 °C.
Compound `O=C(O)c1sc(-c2cccnc2)nc1C(F)(F)F` showed a melting point of 209 °C.
In turn, `Cn1ccnc1Sc1ccc(Nc2c(C#N)cnc3cc(/C=C/CCN4CCCC4)ccc23)cc1Cl` yielded a melting point of 185 to 191 °C.
`Cc1ccc(C(=O)c2c(O)c3cc(C)ccc3[nH]c2=S)cc1` had a melting point of 280 °C.
In turn, `Fc1ccc(OCCCCCN2CCN(c3nccs3)CC2)cc1` registered a melting point of 42 to 44 °C.
The value for `CCCCc1nc(=O)c2cc(C(O)c3ccco3)ccc2[nH]1` (centres undefined) was 183 to 185 °C; that for `NS(=O)(=O)c1ccc(-n2nc(CO)cc2-c2ccc(Cl)cc2)cc1` was 192 to 194 °C; that for `CC(C)Oc1cccc(-n2c(NC(=O)Nc3cccc(C(=O)O)c3)nc3ccccc3c2=O)c1` was 158 to 160 °C.
As to `COC(=O)C1(C)c2ccccc2Oc2ccccc21`, the melting point was in the range of 91 to 92 °C.
With `COC(=O)Nc1ccc(Br)cc1I`, the melting point lay in the range of 129 to 130 °C.
Turning to `CSC1NC(=O)N(C2CCCCC2)C(=O)N1C` (centres undefined), the melting point was in the range of 135 to 137 °C.
The figure for `CS(=O)(=O)c1ccc(C(CC2CCCC2)c2nc(Cl)c(C(=O)C3CC3)[nH]2)cc1` (centres undefined) is 95 to 97 °C; for `COC(=O)c1cc2ccc(O)cc2o1` it is 176 to 177 °C.
As to `Cc1c2c(nn1Cc1ccccc1)c(N)nc1ccccc12`, the melting point was more than 250 °C.
Take `CCCC(=O)c1c[nH]c2c(F)cccc2c1=O`: the melting point lay within 176 to 178 °C.
In turn, `CCOCc1cc2ccc(OCc3ccccc3)cc2o/c1=N\c1ccccc1` showed a melting point of 94 to 95 °C.
The figure for `Cc1ccc(S(=O)(=O)c2ncccc2NC(=O)N[C@@H](Cc2ccc(NC(=O)c3c(Cl)cccc3Cl)cc2)C(=O)O)cc1` is 180 °C.
The value for `COc1ccc2c(-c3ccc(OCCN4CCCC4)cc3)c(Cc3ccc(Cl)cc3)oc2c1` was 75 °C.
Compound `CN(Cc1ccc(COc2cccc3c2CN(C2CCC(=O)NC2=O)C3=O)cc1)c1ccccc1` (centres undefined) came in with a melting point of 201 to 203 °C.
`CCc1c(C)c(NC(=O)CC(C)(C)C)c(C)c2c1S(=O)CC2c1ccc(C(C)C)cc1` (centres undefined) displayed a melting point of 195 to 196 °C.
The figure for `CCC1Cc2c(C)ccc(NNC(=O)OC)c2O1` (centres undefined) is 98 to 100 °C; for `O=C(Nc1cccc(-c2ccccc2)c1)Nc1ccccc1CCO` it is 196 to 198 °C.
`CC1(C)CC(=O)C2=C(C1)NC1=C(C(=O)CC(C)(C)C1)C2c1ccc(OC(F)(F)F)cc1` displayed a melting point of 234 °C.
The figure for `CCCCCOc1ccc(C#CC2(O)CN3CCC2CC3)cc1` (centres undefined) is 153 to 154 °C.
Take `N#Cc1c(F)cc(OCc2ccsc2)cc1OC(C(=O)O)c1ccccc1Cl` (racemic): the melting point was in the range of 152 to 153 °C.
As to `CC(C)(C)c1ccc(Cn2ccc3ccc(-c4ccc(C(F)(F)F)cc4)cc32)cc1`, the melting point was in the range of 134 to 135 °C.
As for `CCOC(=O)CC(=O)c1cc(Oc2ccccc2)c(NS(C)(=O)=O)cc1OCc1ccccc1`, the melting point lay within 85 to 90 °C.
Regarding `CCC(=O)c1nc(C)c(C)nc1C`, the melting point was in the range of 65 to 67 °C.
`O=C(NCCc1cccc(-c2nc(=O)c3ccccc3s2)n1)c1ccccc1`: the melting point was 202 to 203 °C.
`N#Cc1nn(-c2c(Cl)cc(C(F)(F)F)cc2Cl)cc1SC(F)(F)F`: the melting point was 126 to 128 °C.
Compound `CCCc1ccccc1OCCCOc1cccc(OC(=CC(=O)O)C(=O)O)c1CC` returned a melting point of 104 to 105 °C.
For `Cn1ccnc1Sc1ccc([N+](=O)[O-])cc1F`, the melting point fell in the range of 97 to 99 °C.
Compound `COc1ccc(OC)c(NC(=O)C2OC(=O)c3ccccc3C2c2ccc(F)cc2)c1` (centres undefined) showed a melting point of 133 to 136 °C.
Compound `O=[N+]([O-])c1ccc(N=C(NC(=S)NCc2cccnc2)c2ccccc2)cc1` gave a melting point of 179 to 180 °C.
The value for `COc1ccc2c(c1)c(Cc1cc(=O)n(-c3cccc(Br)c3)[nH]1)c(C)n2C(=O)c1ccc(Cl)cc1` was 164 to 167 °C; that for `COc1ccc(-c2cnc3[nH]cc(C(N)=O)c3n2)cc1OC` was 290 to 292 °C.
Consider `c1cc(OC2CN3CCC2CC3)no1` (centres undefined), for which the melting point was in the range of 80 to 81 °C.
On to `CC(CS)C(=O)N1CCC=C1C(=O)O` (centres undefined), for which the melting point is 112 to 114 °C.
Compound `CS(=O)(=O)c1nccc(-n2ncc3ccccc32)n1` showed a melting point of 177 to 181 °C.
The figure for `Cc1cc([N+](=O)[O-])c(C)cc1SCc1cccc(C(F)(F)F)c1` is 85 to 87 °C; for `COc1ccc(C)c(NCc2ccccc2)c1` it is 81 to 82 °C.
Turning to `Cc1cc(C)c2c(c1O)C(N1CCCC1)C1CCCCC21` (centres undefined), the melting point was in the range of 96 to 97 °C.
`Cc1cc(CCCCCOc2ccc(C(N)=S)cc2)on1` displayed a melting point of 156 to 158 °C.
The figure for `CCN(CC)C(=O)c1c(I)ccc(F)c1[Si](C)(C)C` is 58.5 to 64 °C; for `CCN(CC)CCOc1ccc(C(O)(CC)c2cccc(Cl)c2)cc1` (centres undefined) it is 64 to 65 °C; for `COc1cc2c(cc1OCCN(C)C)N(C(=O)c1ccc(-c3ccc(-c4noc(C)n4)cc3C)cc1)CC2` it is 140 to 141 °C.
In turn, `c1csc(-c2nc(CCOc3ccc(CCCn4ccnc4)cc3)co2)c1` gave a melting point of 77 to 78 °C.
On to `COc1ccc(-c2nc3c(o2)C(=O)c2ccccc2C3=O)cc1`, for which the melting point is more than 260 °C.
The value for `Cn1c2ccc([N+](=O)[O-])cc2c2c3ccccc3c(=O)[nH]c21` was more than 300 °C; that for `O=C1C(O)=C([N+](=O)[O-])C(=O)c2ccc(F)cc21` was 152 °C.
Consider `CCCn1c(=O)c2nc(-c3ccc(/C=C/C(=O)O)cc3)[nH]c2n(CC2CCCCC2)c1=O`, for which the melting point is more than 350 °C.
As for `CC(C)(C)OC(=O)N1CCC(n2c(=O)n(CC(F)(F)F)c3cc(F)ccc32)CC1`, the melting point lay in the range of 172 to 173 °C.
In the case of `O=C(NCC12CC3CC(CC(C3)C1)C2)c1cccc([N+](=O)[O-])c1Cl`, the melting point is 185 °C.
As for `Cn1ncc(C(=O)Nc2cc(Cl)ccc2Cl)c1N`, the melting point was 190 to 191 °C.
For `O=S(=O)(c1ccc(I)cc1)N1CCOCC1`, the melting point was 141 to 144 °C.
With `O=C(NCCC1CC1)c1ccnc(N2CCN(Cc3ccc(F)cc3)C2=O)c1`, the melting point is 123 to 125 °C.
As to `O=C(NCCO)c1cccc(-c2cccn3c(=O)n(Cc4cccc(C(F)(F)F)c4)nc23)c1`, the melting point lay within 148 to 150 °C.
The compound `CCOC(=O)c1cnn(-c2ccc(OC(F)(F)F)cc2)c1N` showed a melting point of 102 to 103 °C.
The value for `CNc1cc(S(=O)(=O)c2cccc(C(F)(F)F)c2)cc(Br)n1` was 115 to 117 °C; that for `COc1ccc(CNc2ncnc(Cl)c2N)cc1OC` was 185 to 188 °C.
Regarding `CN(Cc1ccc(NC(=O)C2=Cc3cc(-c4ccc(Cl)cc4)ccc3S(=O)(=O)CC2)cc1)C1CCOCC1`, the melting point is 247 to 250 °C.
The value for `CCCn1c(=O)n2c(-c3ccccc3)nnc2c2[nH]cnc21` was 273 to 280 °C; that for `C[C@H]1[C@@H](O)C(F)(F)C(=O)N1c1ccc(C#N)c(C(F)(F)F)c1` was 128 to 131 °C.
The figure for `c1ccc(C2OC3(CCNCC3)c3ccccc32)cc1` (centres undefined) is 99 to 107 °C; for `CC(=N)NCCCCCCCCCCCCNC(C)=N` it is 92 to 97 °C; for `CC(C)(C)OC(=O)Nc1cc(Cl)c(Cl)c(Cl)c1` it is 120 °C.
`Cc1sc(-c2ccccc2)nc1COc1ccc(COc2ncccc2CO)cc1` yielded a melting point of 111 to 112 °C.
The value for `CC(C)(C)CC(C)(C)c1ccc(OS(=O)(=O)c2ccc(C(C)(C)C)cc2)cc1` was 68 to 71 °C.
Compound `CCNC(=O)n1nc(Oc2ccc(N)c(C(F)(F)F)c2)cc1C` had a melting point of 102 to 104 °C.
`Cc1cccc(C(N)=O)c1SSc1c(C)cccc1C(N)=O`: the melting point lay within 189 to 190 °C.
In turn, `COc1cnc(N2CCN(c3ccc(-n4c(C)n[nH]c4=O)cc3)CC2)nc1` returned a melting point of more than 300 °C.
The figure for `COc1ccc(C(=O)N2CCc3cc(OCc4ccccc4)c(OC)cc3C2=O)cc1` is 151 to 152 °C; for `COc1cc(NCCCN(C)Cc2ccccc2)ccc1C(N)=O` it is 116 to 118 °C.
On to `O=C(O)COc1ccc2c(-c3ccccc3Cl)noc2c1Cl`, for which the melting point is 165 to 168 °C.
Regarding `CCc1cn2c(n1)Cc1cc3c(cc1C(c1ccc(N)cc1)=N2)OCO3`, the melting point is 192 to 194 °C.
The compound `O=C(Cl)c1c(Br)c(Br)c([N+](=O)[O-])c2c1OCCO2` gave a melting point of 215 °C.
In turn, `COCCOc1ccc(CCCOc2cc(CCC(=O)O)n(C)n2)c(Oc2ncc(C(F)(F)F)cc2Cl)c1` had a melting point of 114 to 115 °C.
In turn, `Cc1cc2nc3c4cc(N)ccc4n(CCN(C)C)c3nc2cc1C` gave a melting point of 250 to 251 °C.
The compound `CC1(C)CCCC(=Cc2ccc(Cl)cc2)C1=O` had a melting point of 92 °C.
`CCOc1cccc(CSc2nc3cnccc3[nH]2)c1` returned a melting point of 158 to 161 °C.
On to `CC(C)(C)CN1C(=O)[C@H](CC(=O)O)O[C@@H](c2ccccc2Cl)c2cc(Cl)ccc21`, for which the melting point lay in the range of 241 to 245 °C.
